Activity calls are given as the source filed them. The rule behind the calls is not given here.
How the values were obtained:
SMMC-7721 [1] = assay: Cytotoxicity against human SMMC7721 cells after 48 hrs by MTT assay; assay type: functional, cell-based; conditions: SMMC-7721, 48 h
HepG2 [2] = assay: Cytotoxicity against human HepG2 cells after 48 hrs by MTT assay; assay type: functional, cell-based; conditions: HepG2, 48 h
[3] = Cytotoxicity against human MG63 cells after 48 hrs by MTT assay; assay type: functional, cell-based; conditions: MG-63, 48 h
U2OS [4] = assay: Cytotoxicity against human U2OS cells after 48 hrs by MTT assay; assay type: functional, cell-based
MCF7 [5] = assay: Cytotoxicity against human MCF7 cells after 48 hrs by MTT assay; assay type: functional, cell-based; conditions: MCF7, 48 h
[6] = Cytotoxicity against human MCF7/ADR cells after 48 hrs by MTT assay; assay type: functional, cell-based; conditions: NCI/ADR-RES
HepG2 [7] = assay: Cell cycle arrest in human HepG2 cells assessed as increase in G0/G1 phase cells after 48 hrs using propidium iodide by flow cytometry; assay type: functional, cell-based
HepG2 [8] = assay: Cell cycle arrest in human HepG2 cells assessed as increase in subG1 phase cells at 8 uM after 48 hrs using propidium iodide by flow cytometry; assay type: functional, cell-based
HepG2 [9] = assay: Increase in intracellular Ca2+ level in human HepG2 cells assessed as increase in fluorescence intensity at 30 uM after 6 hrs by Fluo-3 AM -based fluorescence assay relative to control; assay type: functional
SMMC-7721 [10] = assay: Cytotoxicity against human SMMC7721 cells at 10 uM after 48 hrs by MTT assay; assay type: functional, cell-based
HepG2 [11] = assay: Cytotoxicity against human HepG2 cells at 10 uM after 48 hrs by MTT assay; assay type: functional, cell-based
MG-63 = assay: Cytotoxicity against human MG63 cells at 10 uM after 48 hrs by MTT assay; assay type: functional, cell-based
U2OS [12] = assay: Cytotoxicity against human U2OS cells at 10 uM after 48 hrs by MTT assay; assay type: functional, cell-based
MCF7 [13] = assay: Cytotoxicity against human MCF7 cells at 10 uM after 48 hrs by MTT assay; assay type: functional, cell-based
NCI/ADR-RES = assay: Cytotoxicity against human MCF7/ADR cells at 10 uM after 48 hrs by MTT assay; assay type: functional, cell-based

| SMILES | IC50 (SMMC-7721 [1]) [µM] | IC50 (HepG2 [2]) [µM] | IC50 ([3]; read-out: IC50) [µM] | IC50 (U2OS [4]) [µM] | IC50 (MCF7 [5]) [µM] | IC50 [6] [µM] | Activity (HepG2 [7]) | Activity (HepG2 [8]) | Activity (HepG2 [9]) | Activity (SMMC-7721 [10]) | Activity (HepG2 [11]) | Activity (MG-63) | Activity (U2OS [12]) | Activity (MCF7 [13]) | Activity (NCI/ADR-RES) | IC50 [3] [µM] |
| --- | --- | --- | --- | --- | --- | --- | --- | --- | --- | --- | --- | --- | --- | --- | --- | --- |
| CCCCCCCC(=O)O[C@@H]1[C@@H](O)[C@@H](O)[C@H](O[C@@H]2[C@@H](O[C@@H]3O[C@@H](C)[C@H](O)[C@@H](O)[C@H]3O)[C@@H](OC(=O)CCCCC)[C@H](O[C@@H]3[C@H]4OC(=O)CCCCCCCCC[C@H](CCCCC)O[C@@H]5O[C@H](C)[C@H](O)[C@H](O)[C@H]5O[C@H](O[C@H]3C)[C@@H]4O)O[C@H]2C)O[C@H]1C | 6.3 | 2.4 | 5.3 | 4.5 | 4.2 | > 10 | Dose-dependent effect | Active | Active |  |  |  |  |  |  |  |
| CCCCCCCC(=O)O[C@@H]1[C@@H](O)[C@H](C)O[C@@H](O[C@@H]2[C@@H](O[C@@H]3O[C@H](CO)[C@@H](O)[C@H](O)[C@H]3O)[C@@H](OC(=O)CCCCCCC)[C@H](O[C@@H]3[C@H]4OC(=O)CCCCCCCCC[C@H](CCCCC)O[C@@H]5O[C@H](C)[C@H](O)[C@H](O)[C@H]5O[C@H](O[C@H]3C)[C@@H]4O)O[C@H]2C)[C@@H]1O |  |  |  |  |  |  |  |  |  | inactive | inactive | inactive | inactive | inactive | inactive |  |
| CCCCCCCC(=O)O[C@@H]1[C@@H](O)[C@@H](O)[C@H](O[C@@H]2[C@@H](O[C@@H]3O[C@H](CO)[C@@H](O)[C@H](O)[C@H]3O)[C@@H](OC(=O)CCCCCCC)[C@H](O[C@@H]3[C@H]4OC(=O)CCCCCCCCC[C@H](CCCCC)O[C@@H]5O[C@H](C)[C@H](O)[C@H](O)[C@H]5O[C@H](O[C@H]3C)[C@@H]4O)O[C@H]2C)O[C@H]1C | > 10 | 8.5 | 5.4 | > 10 | 7.4 | > 10 |  |  | >200% |  |  |  |  |  |  |  |
| CCCCCCCC(=O)O[C@@H]1[C@@H](O)[C@@H](O)[C@H](O[C@@H]2[C@@H](O[C@@H]3O[C@@H](C)[C@H](O)[C@@H](O)[C@H]3O)[C@@H](OC(=O)CCCCCCC)[C@H](O[C@@H]3[C@H]4OC(=O)CCCCCCCCC[C@H](CCCCC)O[C@@H]5O[C@H](C)[C@H](O)[C@H](O)[C@H]5O[C@H](O[C@H]3C)[C@@H]4O)O[C@H]2C)O[C@H]1C | 9 | 5.2 | 3.7 | 9.6 | 5 | > 10 |  |  | Active |  |  |  |  |  |  |  |
| CCCCCCCCCC(=O)O[C@H]1[C@H](O[C@@H]2[C@H]3OC(=O)CCCCCCCCC[C@H](CCCCC)O[C@@H]4O[C@H](C)[C@H](O)[C@H](O)[C@H]4O[C@H](O[C@H]2C)[C@@H]3O)O[C@@H](C)[C@H](O[C@@H]2O[C@@H](C)[C@H](OC(=O)CCCCCCC)[C@@H](O)[C@H]2O)[C@H]1O[C@@H]1O[C@@H](C)[C@H](O)[C@@H](O)[C@H]1O | > 10 | 4.9 | 6 | > 10 | 9.8 | > 10 |  |  | Active |  |  |  |  |  |  |  |
| COc1cccc2c1C(=O)c1c(O)c3c(c(O)c1C2=O)C[C@@](O)(C(=O)CO)C[C@@H]3O[C@H]1C[C@H](N)[C@H](O)[C@H](C)O1 [DOXORUBICIN] | 1.1 | 0.36 |  | 0.65 | 0.46 |  |  |  |  |  |  |  |  |  |  | 0.74 |
| CCCCCCCC(=O)O[C@@H]1[C@@H](O)[C@@H](O)[C@H](O[C@@H]2[C@@H](O[C@@H]3O[C@@H](C)[C@H](O)[C@@H](O)[C@H]3O)[C@@H](OC(=O)[C@@H](C)CC)[C@H](O[C@@H]3[C@H]4OC(=O)CCCCCCCCC[C@H](CCCCC)O[C@@H]5O[C@H](C)[C@H](O)[C@H](O)[C@H]5O[C@H](O[C@H]3C)[C@@H]4O)O[C@H]2C)O[C@H]1C | 9.5 | 3.7 | 7.7 | 9.4 | 4.1 | > 10 |  |  | Active |  |  |  |  |  |  |  |
